Measured values as given in the SangsterLogP compilation.

First: COc1ccccc1N1CCNCC1
Second: Cc1ccccc1N1CCNCC1
The logP of the first is lower: 1.09 for the first, 2.14 for the second.

First: c1cnc(N2CCNCC2)nc1
Second: Fc1cnc(N2CCNCC2)nc1
The logP of the first is lower: 0.49 for the first, 0.97 for the second.

`Clc1ccccc1N1CCNCC1` and `Clc1cccc(N2CCNCC2)c1` are within 0.2 log units of each other in logP: 2.13 for the first, 2.11 for the second.

Going from `Clc1ccc(N2CCNCC2)cc1` to `Fc1ccc(N2CCNCC2)cc1`, the logP falls from 2.01 to 1.28.

`c1csc(N2CCNCC2)n1` and `c1ccc(N2CCNCC2)nc1` are within 0.2 log units of each other in logP: 0.61 for the first, 0.74 for the second.

Compared with `FC(F)(F)c1cccc(N2CCNCC2)c1`, `c1ccc2c(N3CCNCC3)nsc2c1` is lower in logP: 2.43 for the first, 2.14 for the second.

Compound `c1ccc2nc(N3CCNCC3)ccc2c1` has a logP of 2.04.
